Experimental data: patent US12593865B2, “Member for flavor inhalation article, flavor inhalation article, phenol scavenger for flavor inhalation article, and method for producing flavor inhalation article” (Japan Tobacco Inc., priority 2019, dated 2026)

Assays:
[1] = Distance between Hansen solubility parameter of the substance and that of phenol, HSP (phenol); type: physicochemical; conditions: distance to Hansen solubility parameter of phenol, 25° C.
Description: The Hansen solubility parameter is obtained by decomposing solubility parameter δt (SP) introduced by a person into dispersion force contribution term δd between molecules, dipole interaction contribution term δp between molecules, and hydrogen bond contribution term δh between molecules, thereby extending an applicable substance to a polar substance and a substance generating hydrogen bonding. […] The relationship between the solubility parameter δt and the three contribution terms is shown in the following formula: […]
The three parameters of the dispersion force contribution term δd, the dipole interaction contribution term δp, and the hydrogen bond contribution term δh can be regarded as coordinates in a three-dimensional space with the respective parameters as axes. Since various substances have specific HSPs at a specified temperature, HSPs of these substances are represented as points at different positions in the three-dimensional space as shown in FIG. 1. The solubility (compatibility) between given substance i and another substance j is considered to be higher as distance Rij between two points represented by the following formula becomes smaller.
Accordingly, a magnitude of influence of given substance X on phenol selective filtering performance can be evaluated by obtaining a distance between a position of HSP of phenol and a position of HSP of the given substance X in the three-dimensional space. In the present specification and claims, the distance Rij obtained from the Hansen solubility parameter of phenol and the Hansen solubility parameter of the given substance X according to the above formula is defined as HSP (phenol).

[2] = Dropping point DP of the substance (JIS K2220:2013); type: physicochemical
Experimental: A substance having a dropping point (DP) of 50° C. or higher is less likely to be fluidized under relatively high temperature storage conditions, e.g., in a vending machine having a high temperature. […] Furthermore, when the phenol scavenger contains a substance that is less likely to leak out from a filter or the like, the substance is likely to remain in the filter or the like, and therefore, a member having excellent phenol selective filtering performance can be realized. […] The dropping point of the substance is preferably in a range from 50° C. to 130° C. When the dropping point of the substance is excessively high, the phenol scavenger containing the substance may not be easily carried by a filter or the like, which is not preferable. The dropping point of the substance can be measured according to JIS K2220:2013.
In general, a “dropping point” is a physical property specified for a substance that is semisolid at room temperature such as grease, but a “dropping point” herein is a physical property specified not only for a substance that is semisolid at room temperature but also for a substance that is solid at room temperature. A dropping point of a substance that is solid at room temperature is, for example, equal to its melting point.

[3] = Octanol/water partition coefficient Log P at 25° C.; conditions: for logP: n-octanol/water

For CC(O)CCO (centres unmarked) [1,3-butanediol], the “Vapor Pressure (Pa) at 25° C.” value was 8 Pa and the logP (physchem) was -0.74.

For O=C(O)c1ccccc1 [Benzoic acid, benzoic acid], the “HSP (phenol)” value [1] was 5.17 and the “dropping point DP” value [2] was 122 °C.

With CC1=C(O)C(=O)CC1 [Cyclotene, cyclotene] the “HSP (phenol)” value [1] was 5.37, the logP [3] was 0.22 and the “dropping point DP” value [2] was 71 °C.

Work on CCOC(=O)CCC(=O)OCC [Diethyl succinate, diethyl succinate, reference compound] yielded a logP [3] of 1.26.

For Cc1occc(=O)c1O [Maltol, maltol], the “HSP (phenol)” value [1] was 6.89, the logP [3] was -0.26 and the “dropping point DP” value [2] was 78 °C.

In the case of CC(O)CO (centres unmarked) [Propylene glycol, propylene glycol, reference compound], the “HSP (phenol)” value [1] is reported as 8.

With CC(=O)OCC(COC(C)=O)OC(C)=O [Triacetin, triacetin, reference compound] the “HSP (phenol)” value [1] was 7.18, the “Vapor Pressure (Pa) at 25° C.” value was 0 Pa and the “Partition Coefficient Log P at 25° C.” value ([3]; octanol/water, 25° C.) was 0.25. The “dropping point DP” value [2] was 4 °C.

In the case of COc1cc(CCC(C)=O)ccc1O [Zingerone, zingerone], the “HSP (phenol)” value [1] is reported as 5.56, the “Vapor Pressure (Pa) at 25° C.” value is reported as 0 Pa and the logP [3] is reported as 1.54. The “dropping point DP” value [2] was 54 °C.
